Measured values taken from a melting point compilation (Tetko et al.; mined from patent text by program, amines drawn as free bases though some values may be those of a salt).

Structure (SMILES) | melting point [°C]
CCc1cc(O)c(C(C)=O)c(O)c1 | 121 to 123
CCCC[Si](C)(C)CCSCCCNC(=O)n1cc(F)c(=O)[nH]c1=O | 83.5 to 84
CCCCOc1c(CNC(=O)OCC2c3ccccc3-c3ccccc32)n(CC(C)C)c(=O)c2ccc(-c3nc(C)c(C(=O)OCC)s3)cc12 | 203 to 204
CCC1=NNC(C)=C(C(=O)OCc2ccco2)C1c1cccc([N+](=O)[O-])c1 (centres undefined) | 152
CCNc1c([N+](=O)[O-])cc(C(C)(C)C)cc1[N+](=O)[O-] | 70 to 73
CCCN1C(=O)c2cscc2Nc2ccccc21 | 166 to 167
CCCCCCCCCCCCS(=O)(=O)Nc1cc(-c2nc3cc(Cl)c(Cl)cc3[nH]2)ccc1OC | 203 to 204
COC(=O)C[C@H](O)C[C@H](O)C=Cc1c(-c2ccc(F)cc2)c(-c2ccccc2)c(C(=O)Nc2ccccc2)n1C(C)C | 154 to 155
CN(C)C=NC(=O)C=Cc1ccccc1 | 91 to 93
CCCC1=C(C(=O)OCC)C(c2cc(F)ccc2OC)c2c[nH]nc2N1 (centres undefined) | 164 to 167
O=C(Cc1cccc(C(F)(F)F)c1)NCc1cccc2c1C(=O)N(C1CCC(=O)NC1=O)C2=O (centres undefined) | 156 to 158
CCCCOC(=O)CN1CCC(NC(=O)OC(C)(C)C)CC1 | 116
Cc1c(/C=C/C(=O)c2nn(C)c3ccccc23)ncn1C(c1ccccc1)(c1ccccc1)c1ccccc1 | 223 to 225
COC(=O)c1[nH]c2c(C)ccc(C)c2c1Br | 173 to 174
CN1CCN(CCCNc2ncc3cc(-c4c(Cl)cccc4Cl)c(NC(=O)Nc4ccc(Cl)cc4)nc3n2)CC1 | 176 to 181
CN(C(=O)Nc1ccc(Cl)cc1)n1cnc2ccccc2c1=O | 186 to 188
CC1(C)CC(OC(=O)c2ccccc2)CC(C)(C)N1CC#N | 147
Cc1ccc2c(c1)N=C(N1CCN(C)CC1)c1cscc1O2 | 222
O=C(NCCCSc1ccncc1)c1cccnc1 | 90 to 91
CCOC(=O)C1=C(N)NC(c2ccccc2)=CC1c1ccccc1 (centres undefined) | 159
FC(F)(F)c1cc(Nc2nc3ccccc3o2)ccc1Br | 211 to 212
Cc1oc(-c2ccccc2)nc1COc1cncc(CCl)c1 | 98 to 99
COc1c(OC(C)=O)c(C)c(CCCC(=O)O)c(OC(C)=O)c1OC | 125 to 127
CC(=O)c1ccc(NS(=O)(=O)N(C)C)c(Oc2ccc(F)cc2F)c1 | 80 to 82
COc1cc(C)c(NCCO)cc1N | 148

Structure (SMILES) | melting point [°C]
CCOC(=O)C(C(=O)OCC)C(=O)c1ccc(C(F)(F)F)cc1[N+](=O)[O-] | 59 to 60
COc1ccc(C=CC(=O)c2c(O)cc(OC)cc2OC)cc1 | 111
CCc1c(C)c(NC(=O)NCCO)c(C)c2c1OCC2c1ccc(C(C)C)cc1 (centres undefined) | 147 to 148
COC(=O)c1ccc(S(C)(=O)=O)c(C2=NOC(C)C2)c1Cl (centres undefined) | 130 to 135
COc1ccc(-c2ccc3cc(C(=O)O)ccc3c2)cc1 | 267 to 269
CC(=O)NC[C@H]1CN(c2ccc(N3CCC4(CC3)CC4(C#N)C#N)c(F)c2)C(=O)O1 | 188 to 190
O=c1cc(-c2ccccc2)[nH]c2c(O)c(O)ccc12 | 270 to 274
COC(=O)C=Cc1cccc2cc[nH]c12 | 85 to 86
N#Cc1c(N2CCN(C(=O)c3cccs3)CC2)c2cc(Cl)ccc2n(Cc2ccc(F)cc2)c1=O | 253
Cc1ccc(-c2ccnc3c(C(=O)c4cccs4)cnn23)cc1NC(=O)CC(C)C | 185 to 187
COc1ccc(C2=NN(C3CCOCC3)C(=O)[C@H]3CC=CC[C@@H]23)cc1OC (relative stereo) | 175 to 177
C=CCCC(C#N)(C#N)Cc1ccc(Cl)cc1 | 63.7
COc1cccc(NC(=O)C(C)(C)C)c1 | 126
CCSC(=O)c1nc(N)ccc1Oc1nc(OC)cc(OC)n1 | 115 to 118
CN(C)C(=O)n1nc(C(C)(C)C)nc1SC(NS(C)(=O)=O)NS(C)(=O)=O | 83 to 85
NC(=O)N1CC(Oc2ccccn2)C1 | 133 to 137
CCCCCCOC(=O)C(CSC(=O)C(C)c1ccc(CC(C)C)cc1)NC(C)=O (centres undefined) | 40 to 45
CCCc1c(OCCCCCCC2(C)CC(=O)c3ccc(OCC(=O)O)c(CCC)c3O2)ccc(C(C)=O)c1O (centres undefined) | 120 to 125
S=C(NCCc1ccc(Cl)cc1)Nc1nc2ccccc2[nH]1 | 173 to 182
Oc1cc2c(Cl)cc(Br)cc2cc1Br | 156 to 158
O=S(c1c(C(F)(F)F)[nH]c2ccccc12)C(F)(F)F (centres undefined) | 183 to 185
CNc1nc(-c2cccc(NC(=O)CCc3ccccc3)c2)c2cc(OC)c(OC)cc2n1 | 180 to 182
COc1ccc(CC(C)NCC(O)c2cccc(Br)c2)cc1 (centres undefined) | 79 to 83
Cn1cccc1-c1oncc1C(=O)Nc1ccccc1 | 100 to 103
Cc1cc(C(=O)O)ccc1C(N)C(=O)O (centres undefined) | > 250

Structure (SMILES) | melting point [°C]
Cn1c(COc2ccc(CC3SC(=O)NC3=O)cc2)nc2ccc(OCCc3ccc(NC(=O)Nc4ccc(Cl)cc4)cc3)cc21 (centres undefined) | 157 to 162
COc1ccc2cc([C@H](C)C(=O)OCCCN3C(=O)OC[C@H]3C(C)(C)SN=O)ccc2c1 | 116 to 117
CCC1(CC)c2cc(CBr)c(CBr)cc2C(CC)(CC)N1Cc1ccccc1 | 164 to 166
CC(=O)NC[C@H]1CN(c2ccc(-n3cnnc3S)c(F)c2)C(=O)O1 | 269 to 271
O=C1c2ccccc2C(=O)c2sc(-c3ccc(Cl)o3)nc21 | 258
N#CSC1=Nc2ccccc2Sc2nccn21 | 111 to 113
O=C(C[N+](=O)[O-])OCCSc1ccccc1 | 22 to 24
COCCc1sc2ncnc(N)c2c1-c1ccc(NC(=O)Nc2ccc(C)cc2)cc1 | 128 to 132
COCc1cccc(C(=O)c2nc(OC)cc(OC)n2)c1[N+](=O)[O-] | 111 to 113
Cc1cc(C)cc(N(CCCC(N)=O)Cc2ccc3nc(NCCCN4CCOCC4)n(Cc4ncccc4O)c3c2)c1 | 170
CNC(=O)c1c[nH]c2ccc(C(=O)c3c(C)c(OC)c4ccccn34)cc2c1=O | 324
COc1cc([N+](=O)[O-])ccc1S(=O)(=O)N1C(=O)C(N)(c2ccccc2Cl)c2cc(Cl)ccc21 (centres undefined) | 229
Nc1nc2c(ncn2C2CC(CO)C2CO)c(=O)[nH]1 (centres undefined) | 91 to 92
CN1CCN(c2ncc3c(=O)c(C(=O)O)cn(C4CC4)c3n2)CC1 | 209 to 210
CN(CCc1ccccc1)C(=O)Cn1cc(C=CC=CC(=O)O)c2cc(OCc3ccccc3)ccc21 | 189 to 190
OC(CSc1nc[nH]n1)(Cn1cncn1)c1ccc(Cl)cc1Cl (centres undefined) | 180 to 182
CC(=O)N1c2cc(Cl)ccc2Sc2ccc(C(C)N(O)C(N)=O)cc21 (centres undefined) | 157 to 159
NC(=O)C1(N2C(=O)c3ccccc3C2=O)CCCCC1 | 224 to 226
Cc1cccc(N2CCN(CCCCc3ccc(C4CCC(=O)N4)cc3)CC2)c1 (centres undefined) | 114 to 116
CCCCN(c1nc(N(CC)CC)nc(N(CCCC)C2CC(C)(C)N(OC)C(C)(C)C2)n1)C1CC(C)(C)N(OC)C(C)(C)C1 | 109 to 112
COc1cc(/C=C/C(=O)/C=C/c2cc(OC)c(OCCN=[N+]=[N-])c(OC)c2)cc(OC)c1OCCN=[N+]=[N-] | 107 to 109
COc1ccc(N2CC(CCN3CCC(O)(c4ccc5c(c4)OCO5)CC3)OC2=O)cc1 (centres undefined) | 128 to 130
CSc1ccc(COC(=O)OCc2ccc([N+](=O)[O-])cc2)cc1 | 84 to 86
c1ccc(-c2cn3c(n2)sc2cnccc23)cc1 | 183 to 185
Nc1ccc(N2CCN(c3ccncc3)CC2)cc1 | 204 to 208

Structure (SMILES) | melting point [°C]
CC(C)(C)COc1c(-c2ccc(S(C)(=O)=O)cc2)cnn(-c2ccc(F)c(F)c2)c1=O | 126 to 128
Fc1ccc(Nc2ccnc(Cl)n2)cc1 | 172 to 174
COc1ccc(-c2ccc(C(=O)Nc3cc4ncc(CN5CCCCCC5)cc4cc3C)cc2)cc1 | 161
CN(C)n1cc(C(=O)NCc2ccc(Cl)cc2)c(=O)c2cc(C#CCO)ccc21 | 210 to 214
CCOC(=O)C(=O)CC(=O)c1cn(Cc2cccc(OC)c2)c2ccccc2c1=O | 177 to 179
CCCCCCCCCCCCCCOc1ccc(OC(=O)N(C)Cc2ccccn2)cc1 | 67 to 68
CN(C)C(=O)CC(N)=S | 111 to 114
CC(C)(C)OC(=O)C1=Cc2cc(OCc3ccccc3)ccc2OC1 | 64 to 67
CCCCCCCC(=O)c1ccc(OC(C)=O)c(C(=O)O)c1 | 130
CCOC(=O)C1=C2CC=CC=C2N(C(=O)OCC)CCC1 | 60
COCCOc1ccc(/C=C/C2(O)CN3CCC2CC3)cc1 (centres undefined) | 164 to 166
O=C1NC(=O)C(c2ccc(NC(=O)c3ccccc3)cc2)S1 (centres undefined) | 240 to 245
COc1cc(C(=O)O)cc2c1C(=O)c1c(OC)ccc(OC)c1C2=O | 260 to 262
CC(O)CNC(=O)NC(=O)C(CC1CCCC1)c1ccc(Cl)c(Cl)c1 (centres undefined) | 117 to 120
O=C(O)c1cn(C2CC2)c2c(F)c(F)c(F)c(F)c2c1=O | 179 to 180
CCOC(=O)Cn1c(=S)c2ccccc2n(Cc2ccc(Br)cc2F)c1=O | 109 to 110
COC(=O)NNC(=S)Cc1ccc(F)cc1 | 150 to 152
O[C@@H](CNCc1ccccc1)C1CCCCC1 | 56 to 58
CCCCc1nn(-c2cc([N+](=O)[O-])ccc2Cl)c(=O)[nH]1 | 145 to 147
COc1cc2ncnc(Nc3cccc(Br)c3)c2cc1OCCN1CC(=O)O[C@@H](C)C1 | 190
CCS(=O)CCON=Cc1nn(-c2c(Cl)cc(C(F)(F)F)cc2Cl)c(N)c1S(C)=O (centres undefined) | 144 to 148
CCOC(=O)c1cn(CCc2ccccc2)nc1N | 76.9 to 78.6
CC(C)n1nc(-c2c(-c3ccccc3)nn3ccc(C(=O)N4CCC(c5ccccc5)CC4)cc23)ccc1=O | 184 to 185
C=CCOc1ccc(C(=O)CC(C#N)c2ccc(OC)cc2OC)cc1 (centres undefined) | 112 to 113
